In patent EP1604983A1, “RECEPTOR ANTAGONIST” (Takeda Pharmaceutical Company Limited, priority 2003, dated 2004):
No end group written: not given here.

Columns and labels:
[1] = Blood glucose concentration after intravenous administration of RFRP-1 to rat under no anesthesia; format: in vivo, Wistar male rat; details: 10 nmol/kg, 5 minutes and 15 minutes after administration, compared with physiological saline group (Fig. 1)
Method: (§1) A value indicates mean ± […] (mean ± SE) (n = 4). • Fig. 4 indicates a ratio of freezing in cued fear conditioning when RFRP-1 (-◆-) and a physiological saline (-○-) are administered in a ventricle. An ordinate axis indicates freezing (%) of one day and two day after administration, respectively, expressed by mean ± standard error.
Blood glucose concentration increasing activity of RFRP
As RFRP, human RFRP-1 (37 amino acids) consisting of an amino acid sequence of 56th (Ser) to 92nd (Phe) of an amino acid sequence represented by SEQ ID No.: 3. Hereinafter, this peptide is abbreviated as RFRP-1.
In order to study influence of peripheral administration of RFRP-1 on a blood glucose concentration, operation for collecting blood under free moving was performed. A mature Wistar male rat (weight 310 to 350 g at operation) was anesthetized with 50 mg/kg of pentobarbital by intraperitoneal administration. The rat was fixed on an anatomic pad in a supine position, and a left jugular vein was exposed. […]
Overnight after operation, 300 µl of blood was collected using a tuberculin injection syringe having a dose of 1 ml and a 25 gauge injection needle (both Telmo) before administration of RFRP-1. […] A blood glucose concentration was measured using Fuji Drichem 3500 (FUJIFILM).

[2] = Cued fear conditioning (freezing) after ventricle administration of RFRP-1; format: in vivo, Wistar male rat; details: rat, 3 nmol into a ventricle, on 2 day (48 hours after training); saline group 46.5% (Fig. 4)
Method: as §1
Amnesia promoting activity of RFRP
Since an RFRP nerve is projected on amygdaloid complex, in order to study involvement of RFRP in amygdaloid complex-dependent memory•learning ability, influence under cued fear conditioning due to ventricle administration of RFRP-1 was studied. A mature Wistar male rat (weight 280 to 320 g at operation) was anesthetized with 50 mg/kg of pentobarbital by intraperitoneal administration, and a rat was fixed in a brain localization apparatus. A tooth cutting bar was set lower by 3.3 mm from an interoralline. A cranial bone was exposed, and a hole was opened in a bone using a dental drill in order to embed a guide cannulae AG-12 (internal diameter 0.4 mm, external diameter 0.5 mm, Eicom) in a ventricle. In addition, an anchor screw was embedded in four places at a periphery thereof. A stainless guide cannulae AG-12 was inserted so that its tip was positioned at an upper part of a side ventricle. […]

[3] = Blood glucagon and insulin concentration after intravenous administration of RFRP-1 to rat; format: in vivo, Wistar male rat; details: for blood glucagon concentration: intravenous, compared with physiological saline group (Fig. 2)
Method: as §1
Pancreatic glucagon secretion promoting activity of RFRP
In order to study mechanism of blood glucose concentration increasing activity of RFRP-1, influence of RFRP-1 on a blood concentration of glucagon and insulin which are known as a hormone imparting a variation to a blood glucose concentration was studied. A mature Wistar male rat (weight 310 to 350 g at operation) was operated for collecting blood under free moving. Overnight after operation, 300 µl of a blood was collected using a tuberculin injection syringe having a dose of 1 ml and a 25 gauge injection needle (both Telmo) before administration of RFRP-1. In order to prevent blood coagulation, 3 µl of a 300 KIU/ml aprotinin solution containing 3 mg/ml EDTA had been placed into an injection syringe in advance. An Otsuka physiological saline or RFRP-1 dissolved in a physiological saline (80 nmol/mL) was intravenously administered through a tube at 1 mL/Kg. After 1, 3, 5 and 15 minutes from initiation of intravenous administration, each 300 µL of blood was collected from a jugular vein. The collected blood was centrifuged (13,000 rpm, 5 minutes) using a minor amount high speed cooling centrifuge (MR-150, Tommy Seiko), and the supernatant (plasma) was recovered.

human-type OT7T022 = assay: Binding inhibiting activity using human-type OT7T022-expressing CHO cell membrane fraction and 125I-labeled Y-RFRP-3; details: human-type OT7T022-expressing CHO cell membrane fraction 1 µg; 125I-labeled Y-RFRP-3 100 pM; room temperature 1.5 hours; read-out: IC50 value (binding inhibiting rate)
Method: Assessment of binding inhibiting activity of test compound using human-type OT7T022-expressing CHO cell
(1) Preparation of iodine-labeled entity of human-type RFRP-3 (Y-RFRP-3)
A part thereof was 1/100 diluted, radioactivity was measured with a γ-counter, and the remaining authentic product was distributed, which was stored at -30°C.
(2) Assessment of binding inhibiting activity
To a 96-well microplate were added 1 µg of a membrane fraction, a compound and Y-RFRP-3 labeled with ^125I, which had been diluted with a reaction buffer (50 mM Tris-HCl, 5 mM EDTA, 0.1% BSA, 0.5 mM PMSF, 20 µg/ml leupeptin, 0.1 µg/ml pepstatin A, 4 µg/ml E-64, 10 mM MgCl2, pH 7.5), to 100pM to react them at room temperature for 1.5 hours. For measuring non-specific binding, non-labeled Y-RFRP-3 was further added to […]. Then, a membrane fraction was transferred to a unifilter GF/C (Perkin Elmer) by filtering the reaction solution using a cell harvester (Perkin Elmer), and this was washed with a cooled 50 mM Tris buffer (pH 7.5) five times. The filter was dried, Microsinti (Packard) was added to the filter, and radioactivity was measured with Topcount (Packard).
A binding inhibiting rate (IC50 value) of a test compound is shown in [Table 1].

RFRP-1 (MPHSFANLPLRF; not fully specified; ends and bridges not checked; UniProt Q9HCQ7 81-92, looked up)
blood glucose concentration [1]: significant (p<0.05, n = 4) activity of increasing a blood glucose concentration
rate of freezing [2]: 35.5%
blood insulin concentration ([3]; intravenous (Fig. 3)): a variation due to administration of RFRP-1 was not recognized
blood glucagon concentration ([3]; 5 minutes after administration): significant (p<0.01) increase was continued
blood glucagon concentration ([3]; two minutes after administration): significant (p<0.01) increase in a blood glucagon concentration

tert-Butyl 7-bromo-4-hydroxy-2-neopentyl-1-oxo-1,2-dihydroisoquinoline-3-carboxylate [Example 10]
IC50 (human-type OT7T022): < 1000 nM
